# Experimental data: paper PMC11506018, “Targeting PARP-1 and DNA Damage Response Defects in Colorectal Cancer Chemotherapy with Established and Novel PARP Inhibitors” (Cancers, 2024)
# Where two headings read alike, the source gives them in different places.
# Tests used:
# [1] = test system: H2O2-induced PAR formation (PARP-1 activity) in HCT116 cells; assay: PAR immunofluorescence: H2O2-induced PAR formation in HCT116 cells; assay type: cell-based, human; conditions: for IC50: Homo sapiens, HCT-116, 2 h pretreatment, 1 mM H2O2 5 min
# Procedure: Cells lines were re-authenticated by p53, PARP-1, ATR, and BRCA2 immunoblotting, by their characteristic differential response to genotoxic agents and their typical cell morphology. HCT116, HCT116 BRCA2^−/−, DLD-1 ATR^+/+ and DLD-1 ATR^s/s cells were maintained in DMEM, whereas HCT116 PARP-1^+/+ and HCT116 PARP-1^−/− cells were maintained in RPMI1640 containing 10% FCS and 1% penicillin/streptomycin in a humidified atmosphere at 37 °C and 5% CO2. Caco-2 cells were cultured in MEM with 10% FCS, 1% penicillin/streptomycin, and nonessential amino acids. […] The media and supplements were obtained from PAN-Biotech (Aidenbach, Germany) and Thermo Fisher Scientific (Darmstadt, Germany). Cell culture was frequently tested for contamination with mycoplasma by PCR using the Venor® GeM Classic kit (Minerva Biolabs, Berlin, Germany) and immunofluorescence microscopy with nuclear staining. […] Cells were exposed for 1 h for the quantification of PARP-1 trapping or 2 h for assessing the inhibitory potential by confocal fluorescence microscopy. […] If the PARPi treatment was conducted in combination with cytostatic drugs for 24 h (γH2AX Western blot analysis) or 72 h (cytotoxicity testing), the PARPi was added 2 h prior.
# The activity of potential PARP inhibitors was tested in a cell model using immunofluorescence-based detection of PAR essentially as reported previously. HCT116 cells were seeded in Ibidi 12-well chamber slides and cultivated until they reached 70% confluence. Induction of PARylation was achieved by adding 1 mM H2O2 in PBS/1 mM MgCl2 for 5 min at 37 °C. Cells were washed with PBS/1 mM MgCl2 and fixed by adding 4% PFA at RT. After 20 min, cells were washed with PBS/100 mM glycine for 1 min and permeabilized with PBS/0.3% Triton X-100 for 3 min. Blocking of the cells was conducted by adding PBS/0.05% Tween containing 5% powdered milk for 1 h at RT. […] Cells were washed and an Alexa488-coupled secondary antibody was added for 1 h at RT. The slides were mounted with VectaShield containing DAPI and analyzed by confocal microscopy using a Zeiss Axio Observer 7 microscope (Oberkochen, Germany) equipped with a 63× oil objective (Plan-Apochromat 63×/1.40 DIC M27) and a LSM900 confocal laser scanner (Zeiss, Oberkochen, Germany). Images were analyzed using Zeiss Zen software version 3.4 and ImageJ v1.53t (NIH, Bethesda, MD, USA). Briefly, nuclei were identified based on the DAPI signal and marked as regions of interest (ROI). Subsequently, the mean PAR signal in the identified ROI was quantified in each image and exported for further analysis. For the individual experiments, the mean PAR intensity was averaged for each treatment group and the control was set to 100%. Only images with a minimum of 4 cells were included in the analysis and at least 5 images were assessed per treatment group. The experiments were conducted in at least 3 biological replicates. To derive IC50 concentrations, relative PAR levels of the experiments were transferred to GraphPad Prism 9.0 Software (GraphPad Software Inc., Boston, MA, USA) for a nonlinear regression analysis applying a three-parameter model.
# [2] = test system: PARP-2; parameters: method as in PMID 34327724; conditions: cited from earlier work
# [3] = test system: P-glycoprotein; parameters: method as in PMID 24700236; conditions: efflux transporter; cited from earlier work
# [4] = test system: human colonic epithelial cells (HCEC); assay: cell viability, resazurin reduction assay, HCEC; conditions: 72 h; for IC50: read-out: IC50-values HCEC; for cell viability, monotreatment: nonmalignant HCEC, up to 50 µM
# [5] = test system: Caco-2 cells; assay: cell viability, resazurin reduction assay, Caco-2; conditions: for cell viability, monotreatment: up to 50 µM; for cytotoxicity of IT in combination with PARPi: not statistically significant; for IC50: read-out: IC50-values Caco-2
# [6] = test system: DLD-1 WT cells; assay: cell viability, resazurin reduction assay, DLD-1 WT; conditions: for IC50: read-out: IC50-values DLD-1 WT; for cell viability, monotreatment: DLD-1 WT
# [7] = test system: HCT116 WT cells; assay: cell viability, resazurin reduction assay, HCT116 WT; conditions: for IC50: Homo sapiens, HCT-116, 72 h, read-out: IC50-values HCT116 WT
# [8] = test system: DLD-1 ATRs/s cells; assay: cell viability, resazurin reduction assay, DLD-1 ATRs/s; conditions: for IC50: read-out: IC50-values DLD-1 ATRs/s; for cell viability, monotreatment: DLD-1 ATRs/s
# [9] = test system: HCT116 BRCA2−/− cells; assay: cell viability, resazurin reduction assay, HCT116 BRCA2-/-; conditions: for IC50: read-out: IC50-values HCT116 BRCA2−/−
# [10] = test system: HCT116 PARP-1+/+ cells; assay: cell viability, resazurin reduction assay, HCT116 PARP-1+/+; conditions: for IC50: read-out: IC50-values HCT116 PARP1+/+
# [11] = test system: HCT116 PARP-1−/− cells; assay: cell viability, resazurin reduction assay, HCT116 PARP-1-/-; conditions: for IC50: read-out: IC50-values HCT116 PARP1−/−
# [12] = molecular target: T1, PARP-1 (Homo sapiens, UniProt P09874); assay: chemiluminescence-based PARP-1 assay kit (recombinant enzyme); conditions: for IC50: IC50 PARP-1 screening assay kit
# [13] = test system: γH2AX formation in HCT116 WT cells; assay: γH2AX Western blot in HCT116 WT cells
# [14] = test system: γH2AX formation in HCT116 BRCA2−/− cells; assay: γH2AX Western blot in HCT116 BRCA2-/- cells; conditions: PARPi 50 µM, IT 0.25 µM 24 h
# [15] = molecular target: T1, PARP-1; assay: chromatin retention assay (PARP-1 trapping) in HCT116 cells; conditions: HCT116, MMS 1 mM 1 h with inhibitor
# [16] = molecular target: T1, PARP-1; assay: chromatin retention assay (PARP-1 trapping) in Caco-2 cells; conditions: Caco-2, MMS 1 mM 1 h with inhibitor
# T1 sequence (P09874 whole entry): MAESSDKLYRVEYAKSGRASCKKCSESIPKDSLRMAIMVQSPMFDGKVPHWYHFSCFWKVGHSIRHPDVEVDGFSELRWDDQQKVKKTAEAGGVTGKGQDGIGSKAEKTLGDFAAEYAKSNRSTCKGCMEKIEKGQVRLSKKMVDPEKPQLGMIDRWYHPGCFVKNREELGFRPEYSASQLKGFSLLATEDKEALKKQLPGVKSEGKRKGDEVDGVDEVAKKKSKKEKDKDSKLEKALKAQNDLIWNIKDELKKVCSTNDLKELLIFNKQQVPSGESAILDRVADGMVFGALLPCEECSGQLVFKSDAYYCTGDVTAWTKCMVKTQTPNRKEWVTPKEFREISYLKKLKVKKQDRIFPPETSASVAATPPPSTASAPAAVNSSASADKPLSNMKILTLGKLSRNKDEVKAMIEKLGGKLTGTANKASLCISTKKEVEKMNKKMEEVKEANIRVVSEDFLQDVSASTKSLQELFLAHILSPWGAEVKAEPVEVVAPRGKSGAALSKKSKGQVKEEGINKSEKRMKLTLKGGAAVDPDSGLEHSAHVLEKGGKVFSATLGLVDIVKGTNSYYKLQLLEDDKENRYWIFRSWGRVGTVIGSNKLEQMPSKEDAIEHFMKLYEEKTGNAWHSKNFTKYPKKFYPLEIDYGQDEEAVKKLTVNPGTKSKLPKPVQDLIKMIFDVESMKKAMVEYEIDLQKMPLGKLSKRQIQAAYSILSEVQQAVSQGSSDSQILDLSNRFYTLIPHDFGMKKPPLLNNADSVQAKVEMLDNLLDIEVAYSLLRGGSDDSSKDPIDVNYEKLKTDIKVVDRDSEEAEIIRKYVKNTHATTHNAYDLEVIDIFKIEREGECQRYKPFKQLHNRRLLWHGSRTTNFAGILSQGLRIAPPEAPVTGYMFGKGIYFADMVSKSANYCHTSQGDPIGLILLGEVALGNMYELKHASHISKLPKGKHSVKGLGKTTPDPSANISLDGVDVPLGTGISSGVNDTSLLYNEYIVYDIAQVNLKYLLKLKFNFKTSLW
compound,measurement,setting,value
"O=C(c1cc(Cc2n[nH]c(=O)c3ccccc23)ccc1F)N1CCN(C(=O)C2CC2)CC1 [Olaparib, olaparib]",PAR formation,"[1]; 10 nM, positive control",completely blocked PAR formation
same,P-glycoprotein substrate,[3],known substrates for P-glycoprotein
same,IC50,"[4]; Homo sapiens, HCEC",> 50 µM
same,"cell viability, monotreatment",[4],moderate decline in viability at the highest concentration
same,"cell viability, monotreatment","[5]; Caco-2, 72 h",concentration-dependent reduction in Caco-2 viability
same,cytotoxicity of IT in combination with PARPi,"[5]; Caco-2, IT 10 µM",moderately increased the cytotoxicity of IT
same,IC50,"[5]; Homo sapiens, Caco-2, 72 h",> 50 µM
same,IC50,"[6]; Homo sapiens, DLD-1, 72 h",5.88 µM
same,IC50,[7],8.4 µM
same,IC50,"[8]; Homo sapiens, DLD-1, 72 h",1.99 µM
same,"cytotoxicity, monotreatment","[9]; HCT116 BRCA2−/−, 72 h",High cytotoxicity in the low micromolar concentration range
same,IC50,"[9]; Homo sapiens, HCT-116, 72 h",0.46 µM
"C[C@]1(c2nc3c(C(N)=O)cccc3[nH]2)CCCN1 [Veliparib, veliparib]",P-glycoprotein substrate,[3],are not excreted
same,"cell viability, monotreatment",[4],no effect on HCEC
same,IC50,[4]; RRA,> 50 µM
same,"cell viability, monotreatment","[5]; Caco-2, 72 h",little cytotoxicity at the highest test concentration
same,cytotoxicity of IT in combination with PARPi,"[5]; Caco-2, IT 10 µM",moderately increased the cytotoxicity of IT
same,IC50,"[5]; 72 h, RRA",> 50 µM
same,"cell viability, monotreatment",[6]; 72 h,concentration-dependent decrease in viability in both cell models
same,IC50,"[6]; 72 h, RRA",> 50 µM
same,"cell viability, monotreatment",[8]; 72 h,concentration-dependent decrease in viability in both cell models
same,IC50,"[8]; 72 h, RRA",> 50 µM
same,"cytotoxicity, monotreatment","[9]; HCT116 BRCA2−/−, 72 h",High cytotoxicity in the low micromolar concentration range
same,IC50,[9],7.45 µM
same,cell viability in combination with cytostatics,[10],significant decrease in cell viability compared to mono-treatment with cytostatics
same,"cell viability, monotreatment",[10],only mild cytotoxicity at the highest test concentration
same,IC50,[10],> 50 µM
same,cell viability in combination with cytostatics,[11],did not sensitize to the anticancer drugs
same,"cell viability, monotreatment",[11],only mild cytotoxicity at the highest test concentration
same,IC50,[11],> 50 µM
same,"PARP-1 activity, % of the negative control",[12]; concentration of 5 nM,~50%
"O=C(O)C1=NNC(=O)c2cccc3[nH]cc1c23 [X17613, 1-oxo-2,6-dihydro-1H-[1,2]diazepino [4,5,6-cd]indole-4-carboxylic acid]",IC50,"[1]; range over the three compounds, read-out: IC50 cellular PARP inhibition",0.005 to 0.035 µM
same,IC50,"[1]; unit inferred, read-out: IC50 PAR formation in HCT116 cells (Figure A3A)",0.036 µM
same,PAR signal,"[1]; concentration of 100 nM, H2O2-induced",significant decrease in the PAR signal
same,"γH2AX, co-treatment with IT compared to IT mono-treatment","[13]; PARPi 50 µM 2 h prior, IT 0.25 µM 24 h",no significant further increase
same,"γH2AX, mono-treatment","[13]; X17613 50 µM or IT 0.25 µM, 24 h",No significant increase in γH2AX
same,"γH2AX, co-treatment with IT",[14],further augmented in the presence of X17613
same,IC50,"[4]; Homo sapiens, HCEC",> 50 µM
same,"cell viability, monotreatment",[4],no effect on HCEC
same,"cell viability, monotreatment","[5]; Caco-2, 72 h",little cytotoxicity at the highest test concentration
same,sensitization towards the anticancer drugs,"[5]; Caco-2, IT 10 µM, 5-FU 5 µM, OXA 1 µM",no sensitization towards the anticancer drugs
same,IC50,"[5]; Homo sapiens, Caco-2, 72 h",> 50 µM
same,"cell viability, monotreatment",[6]; 72 h,no effects
same,IC50,"[6]; Homo sapiens, DLD-1, 72 h",> 50 µM
same,"cell viability, monotreatment","[7]; HCT116 WT, 72 h, up to 50 µM",no impact
same,IC50,[7],> 50 µM
same,"cell viability, monotreatment",[8]; 72 h,no effects
same,IC50,"[8]; Homo sapiens, DLD-1, 72 h",> 50 µM
same,decrease of viability,"[9]; HCT116 BRCA2−/−, highest test concentration of 50 µM, 72 h",about 25%
same,cell viability in combination with chemotherapeutics,"[9]; HCT116 BRCA2−/−, IT 0.25 µM, 5-FU 0.1 µM, OXA 0.25 µM, 72 h",significant reduction in viability in HCT116 BRCA2^−/− cells in combination with the established cytostatic drug IT
same,IC50,"[9]; Homo sapiens, HCT-116, 72 h",> 50 µM
same,chromatin-bound PARP-1 (PARP-1 trapping),[15],No enrichment of PARP-1 in the chromatin fraction
same,PARP-1 trapping,[16],no effects were detected
same,"cell viability, monotreatment","[10]; HCT116 PARP-1+/+, 72 h, up to 50 µM",Neither X17613 nor X17618 decreased cell viability
same,cell viability in combination with cytostatics,"[10]; HCT116 PARP-1+/+, IT 0.5 µM, 5-FU 0.25 µM, OXA 0.5 µM, 72 h, PARPi added 2 h prior",did not affect the cytotoxicity of the anticancer drugs
same,IC50,"[10]; Homo sapiens, HCT-116, 72 h",> 50 µM
same,"cell viability, monotreatment","[11]; HCT116 PARP-1−/−, 72 h, up to 50 µM",Neither X17613 nor X17618 decreased cell viability
same,cell viability in combination with cytostatics,"[11]; HCT116 PARP-1−/−, IT 0.5 µM, 5-FU 0.25 µM, OXA 0.5 µM, 72 h, PARPi added 2 h prior",did not affect the cytotoxicity of the anticancer drugs
same,IC50,"[11]; Homo sapiens, HCT-116, 72 h",> 50 µM
same,IC50,[12],0.041 µM
same,IC50,"[12]; recombinant PARP-1, 1 h RT, n = 2",0.0413 µM
